Read-outs that look alike come from different tables or passages of the source.
Target: BRAF V600E (Homo sapiens, UniProt P15056, V600E)
Assay: HiBiT cellular BRAF^V600E degradation assay
Assay type: cell-based
Details: for DC50: concentration at which 50% of total cellular BRAF^V600E is degraded; for Emax: read-out: HiBit 24 h Emax
[1] = A375.10 cells, 24 h, residual protein remaining in the cell

BRAF V600E, sequence (P15056 whole entry V600E): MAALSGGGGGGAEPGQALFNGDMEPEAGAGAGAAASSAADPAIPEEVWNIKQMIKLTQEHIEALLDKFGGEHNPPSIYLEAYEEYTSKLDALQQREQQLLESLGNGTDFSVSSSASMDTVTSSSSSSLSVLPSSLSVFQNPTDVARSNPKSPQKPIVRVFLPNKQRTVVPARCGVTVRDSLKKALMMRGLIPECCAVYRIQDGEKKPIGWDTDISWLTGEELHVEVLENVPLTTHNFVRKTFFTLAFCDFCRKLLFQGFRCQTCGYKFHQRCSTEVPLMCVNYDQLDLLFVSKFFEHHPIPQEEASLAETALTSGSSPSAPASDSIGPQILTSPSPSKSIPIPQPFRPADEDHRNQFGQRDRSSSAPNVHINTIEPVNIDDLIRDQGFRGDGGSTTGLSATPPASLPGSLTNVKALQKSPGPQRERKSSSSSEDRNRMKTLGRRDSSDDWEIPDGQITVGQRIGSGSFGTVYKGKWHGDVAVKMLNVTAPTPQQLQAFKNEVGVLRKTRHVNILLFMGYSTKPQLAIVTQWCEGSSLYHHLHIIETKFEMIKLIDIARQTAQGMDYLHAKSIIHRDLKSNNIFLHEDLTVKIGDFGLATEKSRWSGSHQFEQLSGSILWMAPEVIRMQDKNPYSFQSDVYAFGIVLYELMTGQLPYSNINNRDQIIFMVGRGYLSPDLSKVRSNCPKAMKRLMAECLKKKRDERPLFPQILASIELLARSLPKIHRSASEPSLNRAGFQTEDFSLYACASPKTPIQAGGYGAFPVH

Question: With `CCN(C)S(=O)(=O)Nc1ccc(F)c(Oc2ccc3ncn(CCCC4CCN(C(=O)CN5CCC(c6ccc(NC7CCC(=O)NC7=O)cc6)CC5)CC4)c(=O)c3c2)c1C#N` (centres unmarked) [Example 4, 6-[2-cyano-3-[[ethyl(methyl)sulfamoyl]amino]-6-fluorophenoxy]-3-[3-[1-[2-[4-[4-[(2,6-dioxopiperidin-3-yl)amino]phenyl]piperidin-1-yl]acetyl]piperidin-4-yl]propyl]-4-oxoquinazoline] as the compound, how does the DC50 (A375.10 cells, 24 h) read?
Answer: 28.6 nM

Question: And the Emax [1]?
Answer: 10.8%

Question: How did the DC50 (A375.10 cells, 24 h) turn out when `CCN(C)S(=O)(=O)Nc1ccc(F)c(Oc2ccc3ncn(CCCC4CCN(C(=O)CN5CCC(c6ccc(C7CCC(=O)NC7=O)cc6F)CC5)CC4)c(=O)c3c2)c1C#N` (centres unmarked) [Example 5, 6-[2-cyano-3-[[ethyl(methyl)sulfamoyl]amino]-6-fluorophenoxy]-3-[3-[1-[2-[4-[4-(2,6-dioxopiperidin-3-yl)-2-fluorophenyl]piperidin-1-yl]acetyl]piperidin-4-yl]propyl]-4-oxoquinazoline] was run?
Answer: 49.3 nM

Question: What about the Emax [1] of the same compound?
Answer: 13.1%

Question: How did the DC50 (A375.10 cells, 24 h) turn out when `CCN(C)S(=O)(=O)Nc1ccc(F)c(Oc2ccc3ncn(CCCC4CCN(C(=O)CN5CCC(c6ccc(NC7CCC(=O)NC7=O)cc6F)CC5)CC4)c(=O)c3c2)c1C#N` (centres unmarked) [Example 6, 6-[2-cyano-3-[[ethyl(methyl)sulfamoyl]amino]-6-fluorophenoxy]-3-[3-[1-[2-[4-[4-[(2,6-dioxopiperidin-3-yl)amino]-2-fluorophenyl]piperidin-1-yl]acetyl]piperidin-4-yl]propyl]-4-oxoquinazoline] was run?
Answer: 22.7 nM

Question: And the Emax [1]?
Answer: 11.5%

Question: What does the source list for `CCN(C)S(=O)(=O)Nc1ccc(F)c(Oc2ccc3ncn(CCCC4CCN(CC(=O)N5CCC(c6ccc(NC7CCC(=O)NC7=O)cc6)CC5)CC4)c(=O)c3c2)c1C#N` (centres unmarked) [Example 7, 6-[2-cyano-3-[[ethyl(methyl)sulfamoyl]amino]-6-fluorophenoxy]-3-[3-[1-[2-[4-[4-[(2,6-dioxopiperidin-3-yl)amino]phenyl]piperidin-1-yl]-2-oxoethyl]piperidin-4-yl]propyl]-4-oxoquinazoline]?
Answer: DC50 (A375.10 cells, 24 h): 42.2 nM; Emax [1]: 15.2%

Question: What does the source list for `CCN(C)S(=O)(=O)Nc1ccc(F)c(Oc2ccc3ncn(CCN4CCN(C(=O)CN5CCC(c6ccc(NC7CCC(=O)NC7=O)cc6F)CC5)CC4)c(=O)c3c2)c1C#N` (centres unmarked) [Example 8, 6-[2-cyano-3-[[ethyl(methyl)sulfamoyl]amino]-6-fluorophenoxy]-3-[2-[4-[2-[4-[4-[(2,6-dioxopiperidin-3-yl)amino]-2-fluorophenyl]piperidin-1-yl]acetyl]piperazin-1-yl]ethyl]-4-oxoquinazoline]?
Answer: DC50 (A375.10 cells, 24 h): 27.9 nM; Emax [1]: 10%

Question: Which DC50 (A375.10 cells, 24 h) does the source give for `CCN(C)S(=O)(=O)Nc1ccc(F)c(Oc2ccc3ncn(CCN4CCN(C(=O)CN5CCC(c6ccc(NC7CCC(=O)NC7=O)cc6)CC5)CC4)c(=O)c3c2)c1C#N` (centres unmarked) [Example 9, 6-[2-cyano-3-[[ethyl(methyl)sulfamoyl]amino]-6-fluorophenoxy]-3-[2-[4-[2-[4-[4-[(2,6-dioxopiperidin-3-yl)amino]phenyl]piperidin-1-yl]acetyl]piperazin-1-yl]ethyl]-4-oxoquinazoline] here?
Answer: 41.9 nM

Question: And the Emax [1]?
Answer: 9.87%

Question: What does the source list for `CCN(C)S(=O)(=O)Nc1ccc(F)c(Oc2ccc3ncn(C(C)CCC4CCN(C(=O)CN5CCC(c6ccc(NC7CCC(=O)NC7=O)cc6F)CC5)CC4)c(=O)c3c2)c1C#N` (centres unmarked) [Example 10, 6-[2-cyano-3-[[ethyl(methyl)sulfamoyl]amino]-6-fluorophenoxy]-3-[4-[1-[2-[4-[4-[(2,6-dioxopiperidin-3-yl)amino]-2-fluorophenyl]piperidin-1-yl]acetyl]piperidin-4-yl]butan-2-yl]-4-oxoquinazoline]?
Answer: DC50 (A375.10 cells, 24 h): 41.9 nM; Emax [1]: 12.6%

Question: What does the source list for `CCN(C)S(=O)(=O)Nc1ccc(F)c(Oc2ccc3ncn(CCC(C)C4CCN(C(=O)CN5CCC(c6ccc(NC7CCC(=O)NC7=O)cc6F)CC5)CC4)c(=O)c3c2)c1C#N` (centres unmarked) [Example 11, 6-[2-cyano-3-[[ethyl(methyl)sulfamoyl]amino]-6-fluorophenoxy]-3-[3-[1-[2-[4-[4-[(2,6-dioxopiperidin-3-yl)amino]-2-fluorophenyl]piperidin-1-yl]acetyl]piperidin-4-yl]butyl]-4-oxoquinazoline]?
Answer: DC50 (A375.10 cells, 24 h): 10.1 nM; Emax [1]: 9.52%

Question: Which results are given for `CCN(C)S(=O)(=O)Nc1ccc(F)c(Oc2ccc3ncn(CCCC4(C)CCN(C(=O)CN5CCC(c6ccc(NC7CCC(=O)NC7=O)cc6F)CC5)CC4)c(=O)c3c2)c1C#N` (centres unmarked) [Example 12, 6-[2-cyano-3-[[ethyl(methyl)sulfamoyl]amino]-6-fluorophenoxy]-3-[3-[1-[2-[4-[4-[(2,6-dioxopiperidin-3-yl)amino]-2-fluorophenyl]piperidin-1-yl]acetyl]-4-methylpiperidin-4-yl]propyl]-4-oxoquinazoline]?
Answer: DC50 (A375.10 cells, 24 h): 29.2 nM; Emax [1]: 8.33%

Question: Which results are given for `CCN(C)S(=O)(=O)Nc1ccc(F)c(Oc2ccc3ncn(CCC4(F)CCN(C(=O)CN5CCC(c6ccc(NC7CCC(=O)NC7=O)cc6F)CC5)CC4)c(=O)c3c2)c1C#N` (centres unmarked) [Example 13, 6-[2-cyano-3-[[ethyl(methyl)sulfamoyl]amino]-6-fluorophenoxy]-3-[2-[1-[2-[4-[4-[(2,6-dioxopiperidin-3-yl)amino]-2-fluorophenyl]piperidin-1-yl]acetyl]-4-fluoropiperidin-4-yl]ethyl]-4-oxoquinazoline]?
Answer: DC50 (A375.10 cells, 24 h): 26.2 nM; Emax [1]: 8.27%

Question: Which results are given for `CCN(C)S(=O)(=O)Nc1ccc(F)c(Oc2ccc3ncn(CC(C)CC4CCN(C(=O)CN5CCC(c6ccc(NC7CCC(=O)NC7=O)cc6F)CC5)CC4)c(=O)c3c2)c1C#N` (centres unmarked) [Example 14, 6-[2-cyano-3-[[ethyl(methyl)sulfamoyl]amino]-6-fluorophenoxy]-3-[3-[1-[2-[4-[4-[(2,6-dioxopiperidin-3-yl)amino]-2-fluorophenyl]piperidin-1-yl]acetyl]piperidin-4-yl]-2-methylpropyl]-4-oxoquinazoline]?
Answer: DC50 (A375.10 cells, 24 h): 12.5 nM; Emax: 8.11%

Question: Which results are given for `CCN(C)S(=O)(=O)Nc1ccc(F)c(Oc2ccc3ncn(CCCC4(F)CCN(C(=O)CN5CCC(c6ccc(NC7CCC(=O)NC7=O)cc6F)CC5)CC4)c(=O)c3c2)c1C#N` (centres unmarked) [Example 15, 6-[2-cyano-3-[[ethyl(methyl)sulfamoyl]amino]-6-fluorophenoxy]-3-[3-[1-[2-[4-[4-[(2,6-dioxopiperidin-3-yl)amino]-2-fluorophenyl]piperidin-1-yl]acetyl]-4-fluoropiperidin-4-yl]propyl]-4-oxoquinazoline]?
Answer: DC50 (A375.10 cells, 24 h): 11.1 nM; Emax [1]: 7.29%

Question: Which results are given for `CCN(C)S(=O)(=O)Nc1ccc(F)c(Oc2ccc3ncn(-c4cnn(C5CCN(C(=O)CN6CCC(c7ccc(NC8CCC(=O)NC8=O)cc7F)CC6)CC5)c4)c(=O)c3c2)c1C#N` (centres unmarked) [Example 16, 6-[2-cyano-3-[[ethyl(methyl)sulfamoyl]amino]-6-fluorophenoxy]-3-[1-[1-[2-[4-[4-[(2,6-dioxopiperidin-3-yl)amino]-2-fluorophenyl]piperidin-1-yl]acetyl]piperidin-4-yl]pyrazol-4-yl]-4-oxoquinazoline]?
Answer: DC50 (A375.10 cells, 24 h): 20.5 nM; Emax [1]: 15.5%

Question: Which results are given for `CCN(C)S(=O)(=O)Nc1ccc(F)c(Oc2ccc3ncn(-c4cnn(C5CCN(C(=O)CN6CCC(c7ccc(C8CCC(=O)NC8=O)cc7F)CC6)CC5)c4)c(=O)c3c2)c1C#N` (centres unmarked) [Example 17, 6-[2-cyano-3-[[ethyl(methyl)sulfamoyl]amino]-6-fluorophenoxy]-3-[1-[1-[2-[4-[4-(2,6-dioxopiperidin-3-yl)-2-fluorophenyl]piperidin-1-yl]acetyl]piperidin-4-yl]pyrazol-4-yl]-4-oxoquinazoline]?
Answer: DC50 (A375.10 cells, 24 h): 44 nM; Emax [1]: 20.7%

Question: How did the DC50 (A375.10 cells, 24 h) turn out when `CCN(C)S(=O)(=O)Nc1ccc(F)c(Oc2ccc3ncn(-c4cnn(C5CCN(C(=O)CN6CCC(c7ccc(NC8CCC(=O)NC8=O)cc7)CC6)CC5)c4)c(=O)c3c2)c1C#N` (centres unmarked) [Example 18, 6-[2-cyano-3-[[ethyl(methyl)sulfamoyl]amino]-6-fluorophenoxy]-3-[1-[1-[2-[4-[4-[(2,6-dioxopiperidin-3-yl)amino]phenyl]piperidin-1-yl]acetyl]piperidin-4-yl]pyrazol-4-yl]-4-oxoquinazoline] was run?
Answer: 30.7 nM

Question: And the Emax [1]?
Answer: 18.5%

Question: For `CCN(C)S(=O)(=O)Nc1ccc(F)c(Oc2ccc3ncn(-c4cnn(C5CCN(C(=O)CN6CCC(c7ccc(NC8CCC(=O)NC8=O)c(F)c7)CC6)CC5)c4)c(=O)c3c2)c1C#N` (centres unmarked) [Example 19, 6-[2-cyano-3-[[ethyl(methyl)sulfamoyl]amino]-6-fluorophenoxy]-3-[1-[1-[2-[4-[4-[(2,6-dioxopiperidin-3-yl)amino]-3-fluorophenyl]piperidin-1-yl]acetyl]piperidin-4-yl]pyrazol-4-yl]-4-oxoquinazoline], which DC50 (A375.10 cells, 24 h) is on record?
Answer: 42.3 nM

Question: And the Emax?
Answer: 20.6%

Question: For `CCN(C)S(=O)(=O)Nc1ccc(F)c(Oc2ccc3ncn(-c4cnn(C5CCN(C(=O)CN6CCC(c7c(F)cc(NC8CCC(=O)NC8=O)cc7F)CC6)CC5)c4)c(=O)c3c2)c1C#N` (centres unmarked) [Example 20, 6-[2-cyano-3-[[ethyl(methyl)sulfamoyl]amino]-6-fluorophenoxy]-3-[1-[1-[2-[4-[4-[(2,6-dioxopiperidin-3-yl)amino]-2,6-difluorophenyl]piperidin-1-yl]acetyl]piperidin-4-yl]pyrazol-4-yl]-4-oxoquinazoline], which DC50 (A375.10 cells, 24 h) is on record?
Answer: 14.4 nM

Question: And the Emax [1]?
Answer: 17.7%

Question: How did the DC50 (A375.10 cells, 24 h) turn out when `CCN(C)S(=O)(=O)Nc1ccc(F)c(Oc2ccc3ncn(-c4cnn(C5CCN(CC(=O)N6CCC(c7ccc(NC8CCC(=O)NC8=O)cc7)CC6)CC5)c4)c(=O)c3c2)c1C#N` (centres unmarked) [Example 21, 6-[2-cyano-3-[[ethyl(methyl)sulfamoyl]amino]-6-fluorophenoxy]-3-[1-[1-[2-[4-[4-[(2,6-dioxopiperidin-3-yl)amino]phenyl]piperidin-1-yl]-2-oxoethyl]piperidin-4-yl]pyrazol-4-yl]-4-oxoquinazoline] was run?
Answer: 34.3 nM

Question: And the Emax [1]?
Answer: 19.6%

Question: What does the source list for `CCN(C)S(=O)(=O)Nc1ccc(F)c(Oc2ccc3ncn(C4CC5(CCN(C(=O)CN6CCC(c7ccc(NC8CCC(=O)NC8=O)cc7F)CC6)CC5)C4)c(=O)c3c2)c1C#N` (centres unmarked) [Example 22, 6-[2-cyano-3-[[ethyl(methyl)sulfamoyl]amino]-6-fluorophenoxy]-3-[7-[2-[4-[4-[(2,6-dioxopiperidin-3-yl)amino]-2-fluorophenyl]piperidin-1-yl]acetyl]-7-azaspiro[3.5]nonan-2-yl]-4-oxoquinazoline]?
Answer: DC50 (A375.10 cells, 24 h): 11.2 nM; Emax [1]: 11.5%

— patent US12486253B2, “Therapeutics for the degradation of mutant BRAF” (C4 THERAPEUTICS, INC., priority 2021, dated 2025)
